Measured values published in patent US9637472B2, “Substituted 6,5-fused bicyclic heteroaryl compounds” (Epizyme, Inc., priority 2011, dated 2017).

Target: EZH2 (Homo sapiens (Human), UniProt Q15910)
Assay: PRC2 enzyme assay on peptide substrates
Format: biochemical
Settings: PRC2 enzyme assays on peptide substrates; 4 nM enzyme, 30 min preincubation at 25° C.; read-out: EZH2 IC50

Chain of EZH2 (Q15910 other isoform, or with tags, fused parts or gaps): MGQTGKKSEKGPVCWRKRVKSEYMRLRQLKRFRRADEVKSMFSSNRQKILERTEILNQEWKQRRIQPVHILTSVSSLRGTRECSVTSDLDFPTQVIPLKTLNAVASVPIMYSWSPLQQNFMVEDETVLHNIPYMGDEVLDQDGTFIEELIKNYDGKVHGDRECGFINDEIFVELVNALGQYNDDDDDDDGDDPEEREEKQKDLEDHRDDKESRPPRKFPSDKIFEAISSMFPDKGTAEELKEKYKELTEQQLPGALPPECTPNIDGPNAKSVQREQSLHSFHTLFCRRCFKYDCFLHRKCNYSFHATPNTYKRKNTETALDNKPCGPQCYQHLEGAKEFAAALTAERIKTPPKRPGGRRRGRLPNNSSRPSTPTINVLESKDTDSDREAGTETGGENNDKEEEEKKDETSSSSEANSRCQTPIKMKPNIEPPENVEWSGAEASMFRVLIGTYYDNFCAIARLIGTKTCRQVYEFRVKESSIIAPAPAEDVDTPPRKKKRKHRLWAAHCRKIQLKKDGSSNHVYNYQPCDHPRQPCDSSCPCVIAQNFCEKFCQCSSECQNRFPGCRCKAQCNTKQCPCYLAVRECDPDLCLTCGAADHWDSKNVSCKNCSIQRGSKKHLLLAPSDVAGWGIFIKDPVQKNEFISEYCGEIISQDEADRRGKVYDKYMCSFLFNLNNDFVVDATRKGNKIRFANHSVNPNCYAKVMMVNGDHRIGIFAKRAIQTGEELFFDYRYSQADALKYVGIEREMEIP
Chain of EZH2 (O75530 whole entry partner): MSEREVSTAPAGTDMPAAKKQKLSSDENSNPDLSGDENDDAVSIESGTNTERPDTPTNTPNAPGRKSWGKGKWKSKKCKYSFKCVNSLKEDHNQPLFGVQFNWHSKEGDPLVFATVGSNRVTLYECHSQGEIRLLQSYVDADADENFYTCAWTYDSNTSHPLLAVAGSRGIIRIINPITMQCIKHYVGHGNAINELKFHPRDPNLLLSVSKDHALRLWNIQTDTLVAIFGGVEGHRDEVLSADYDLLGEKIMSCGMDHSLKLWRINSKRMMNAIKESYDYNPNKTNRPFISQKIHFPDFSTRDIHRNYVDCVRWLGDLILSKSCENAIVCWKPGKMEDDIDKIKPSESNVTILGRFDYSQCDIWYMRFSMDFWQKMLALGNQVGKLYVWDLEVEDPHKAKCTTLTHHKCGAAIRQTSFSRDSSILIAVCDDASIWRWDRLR
Chain of EZH2 (Q15022 whole entry partner): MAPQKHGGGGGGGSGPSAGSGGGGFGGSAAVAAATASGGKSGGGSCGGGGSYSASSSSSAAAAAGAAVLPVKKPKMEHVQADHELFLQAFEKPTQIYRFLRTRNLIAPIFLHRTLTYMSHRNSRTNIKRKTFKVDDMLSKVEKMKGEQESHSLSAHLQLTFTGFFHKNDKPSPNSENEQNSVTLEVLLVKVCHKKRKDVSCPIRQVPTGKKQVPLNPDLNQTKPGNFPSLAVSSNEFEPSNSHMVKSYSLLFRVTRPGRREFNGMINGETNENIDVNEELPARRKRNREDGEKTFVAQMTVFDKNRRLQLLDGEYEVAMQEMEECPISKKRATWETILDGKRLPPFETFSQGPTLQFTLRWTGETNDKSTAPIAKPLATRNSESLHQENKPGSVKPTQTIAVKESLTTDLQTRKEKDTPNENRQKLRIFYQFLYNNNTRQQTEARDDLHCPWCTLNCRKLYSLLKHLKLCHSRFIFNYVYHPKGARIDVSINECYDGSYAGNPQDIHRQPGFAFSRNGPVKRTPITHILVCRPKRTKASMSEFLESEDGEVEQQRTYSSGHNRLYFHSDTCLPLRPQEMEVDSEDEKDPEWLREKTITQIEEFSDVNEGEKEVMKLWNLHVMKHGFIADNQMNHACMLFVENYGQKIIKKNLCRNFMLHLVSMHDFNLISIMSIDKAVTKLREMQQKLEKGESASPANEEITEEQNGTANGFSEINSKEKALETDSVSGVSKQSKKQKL
Chain of EZH2 (Q09028 whole entry partner): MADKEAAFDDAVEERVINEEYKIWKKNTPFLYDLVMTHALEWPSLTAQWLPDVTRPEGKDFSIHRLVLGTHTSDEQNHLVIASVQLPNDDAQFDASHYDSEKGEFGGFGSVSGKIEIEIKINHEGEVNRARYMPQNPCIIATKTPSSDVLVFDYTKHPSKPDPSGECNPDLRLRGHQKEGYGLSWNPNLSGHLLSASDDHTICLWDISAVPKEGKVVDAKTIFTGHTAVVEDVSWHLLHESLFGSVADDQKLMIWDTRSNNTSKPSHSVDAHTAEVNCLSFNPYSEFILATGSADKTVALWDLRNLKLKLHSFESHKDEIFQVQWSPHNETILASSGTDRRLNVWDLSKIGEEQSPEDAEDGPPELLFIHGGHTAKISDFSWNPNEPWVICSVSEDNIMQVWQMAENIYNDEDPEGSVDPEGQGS

Cc1cc(C)c(CNC(=O)c2cc(C3=CCN(S(C)(=O)=O)CC3)nc3c2cnn3C(C)C)c(=O)[nH]1 [Compound B-99]
IC50: 1000 to 3000 nM

Cc1cc(C)c(CNC(=O)c2cc(-c3cccc(CO)c3)cc3c2cnn3C2CCCC2)c(=O)[nH]1 [Compound C-8, 1-cyclopentyl-N-((4,6-dimethyl-2-oxo-1,2-dihydropyridine-3-yl)methyl)-6-(3-(hydroxymethyl)phenyl)-1H-indazole-4-carboxamide]
IC50: 300 to 1000 nM

Cc1cc(C)c(CNC(=O)c2cc(C3=CCN(C(=O)C4CCN(C)CC4)CC3)nc3c2cnn3C(C)C)c(=O)[nH]1 [Compound B-34, N-((4,6-dimethyl-2-oxo-1,2-dihydropyridin-3-yl)methyl)-1-isopropyl-6-(1-(1-methylpiperidine-4-carbonyl)-1,2,3,6-tetrahydropyridin-4-yl)-1H-pyrazolo[3,4-b]pyridine-4-carboxamide]
IC50: < 300 nM

Cc1cc(C)c(CNC(=O)c2cc(C(=O)NCCN(C)C)nc3c2cnn3C(C)C)c(=O)[nH]1 [Compound B-140]
IC50: 3000 to 10000 nM

Cc1cc(C)c(CNC(=O)c2cc(-c3cnn(CCN4CCOCC4)c3)cc3c2cnn3C2CCN(C(=O)C(C)(C)C)CC2)c(=O)[nH]1 [Compound C-34]
IC50: < 300 nM
